Experimental findings from patent publication US20030113321A1, “Novel G-protein-coupled receptor protein and its DNA” (priority 2000, published 2003) are described below.

Assay type in all cases: cell-based
In test [1] the target is T1, TGR4 (Homo sapiens, UniProt Q9H1C0). The test can be described thus: Reporter gene (CRE-luciferase) expression level in cells with transient TGR4 expression. The following applies: TGR4 gene-transfected CHO-mock cells (co-transfected with pAK-Gi and pCRE-Luc), 4 hours, FIG. 4. More on the design: expressed in transfected cells; host or cells: CHO-mock cells (CHO(dhfr-) transformed with pAKKO-111H), transiently transfected with pAK-TGR4, pAK-Gi and pCRE-Luc. From the text: TGR4 cDNA or inhibitory G protein α subunit Gi cDNA was inserted into the animal cell expression vector plasmid pAKKO-111H (the plasmid vector identical to the pAKKO-1.11H described in Biochim. Biophys. Acta, Hinuma, S., et al., 1219, 251-259, 1994) by publicly known methods. The expression vector plasmids pAK-TGR4 and pAK-Gi thus produced and pAKKO-111H without any particular gene inserted were transfected to CHO cells by the following procedures.
First, using these vectors, Escherichia coli JM109 was transformed; after the colony obtained was isolated and incubated, a plasmid was prepared using QIAGEN Plasmid Maxi Kit (Qiagen, Inc.). […]
Geranylgeranyl diphosphate (GGPP, Sigma, Inc.), farnesyl diphosphate (FPP, Sigma, Inc.) and lysophosphatidic acid (LPA, Sigma, Inc.) were diluted in the assay buffer, respectively, and each dilution was added to the transfected CHO-mock cells described above in a concentration of 1, 0.1 and 0.01 μM, followed by incubation at 37° C. for 4 hours under 5% CO2. The culture supernatant was discarded and 50 μl of a substrate for assaying an luciferase activity or PicaGene LT 2.0 (Toyo Ink Mfg. Co., Ltd.) was added, and the luminescence amount of luciferase was assayed by using a plate reader (ARVO sx multi-label counter, Walac, Inc.).

The target in test [2] is T1, TGR4. The test can be described thus: Intracellular calcium ion mobilization activity in TGR4-expressed CHO cells (FLIPR). Set-up: expressed in transfected cells; host or cells: CHO cells stably expressing TGR4 (CHO-TGR4). The following applies: 2.5 μM; CHO-TGR4 compared with CHO-mock cells; about 3 minutes after addition; FIGS. 5 and 6. On the procedure:
Using the plasmids for TGR4 expression prepared in EXAMPLE 3, CHO-TGR4 as CHO cells for stable TGR4 expression was prepared by a publicly known method. CHO-mock cells with neither CHO-TGR4 nor receptor gene introduced were plated in a 96-well black plate (Costar, Inc.) with the clear bottom in a concentration of 3000 cells/well, and cultured overnight at 37° C. under 5% CO2. The culture solution was used for assay. A wash buffer was prepared by adding 20 mM HEPES, pH 7.4 and 2.5 mM probenecid (Sigma, Inc.) to Hank's balanced salt solution (HBSS, Gibco BRL, Inc.). As a sample buffer, the wash buffer supplemented with 0.1% bovine serum albumin (BSA, Sigma, Inc.) was used. As a dye loading solution there was used a mixture prepared by adding 1% FBS, 4 μM Fluo 3-AM (Wako Pure Chemical Industry Co., Ltd.) and 0.04% Pluronic acid (Molecular Probes, Inc.) to the wash buffer. The medium of the cells was discarded and the dye loading solution was added. After incubation at 37° C. for an hour, the cells were washed with the wash buffer using a plate washer. The cells were set on Fluorometric Imaging Plate Reader (FLIPR, Molecular Devices, Inc.) and a change of the intracellular calcium ion level was measured for about 3 minutes after addition of the sample. As the sample, FPP or LPA was added in a concentration of 2.5 μM.
Background: Calcium flux is commonly read through the fluorescence of an indicator in the cells.

The target of test [3] is T1, TGR4. As to the kind of experiment: Intracellular cAMP production amount in TGR4-expressed CHO cells. Set-up: expressed in transfected cells; host or cells: CHO cells stably expressing TGR4 (CHO-TGR4). The following applies: 2 μM; CHO-TGR4 compared with CHO-mock cells; 30 minutes at 37° C.; n is 3; FIGS. 7 and 8. As to the method: CHO-mock cells with neither CHO-TGR4 nor receptor gene introduced, which were prepared in EXAMPLE 4, were plated in a 96-well plate (Beckton-Dickinson, Inc.) in 25,000 cells/well, followed by incubation overnight at 37° C. under 5% CO2. This culture solution was used for assay. A sample buffer used was HBSS supplemented with 0.1% BSA and 0.2 mM I BMX (Sigma, Inc.). The cells were washed twice with the sample buffer and pre-incubated at 37° C. for 30 minutes. The cells were further washed twice and the sample was added thereto followed by incubation at 37° C. for 30 minutes. The sample was added in 2 μM of farnesyl diphosphate or lysophosphatidic acid. After incubation in the presence of the sample, the amount of intracellular cAMP production was assayed by using cAMP Screen System (ABI).
(In general: Changes in cAMP serve as a functional read-out for many G protein-coupled receptors.)

T1 sequence (Q9H1C0 whole entry): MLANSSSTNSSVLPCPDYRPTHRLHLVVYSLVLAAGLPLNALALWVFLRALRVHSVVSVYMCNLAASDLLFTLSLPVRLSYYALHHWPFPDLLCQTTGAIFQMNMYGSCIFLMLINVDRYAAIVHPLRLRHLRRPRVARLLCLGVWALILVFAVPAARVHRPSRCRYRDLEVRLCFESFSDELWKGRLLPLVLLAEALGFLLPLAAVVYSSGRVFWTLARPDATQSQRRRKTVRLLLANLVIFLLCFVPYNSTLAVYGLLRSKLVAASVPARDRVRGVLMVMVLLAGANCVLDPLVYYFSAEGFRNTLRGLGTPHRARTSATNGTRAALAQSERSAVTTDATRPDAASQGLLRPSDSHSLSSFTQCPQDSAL

In the case of `CC(C)=CCC/C(C)=C/CC/C(C)=C/CC/C(C)=C/COP(=O)(O)OP(=O)(O)O` [GGPP, Geranylgeranyl diphosphate], the luciferase activity result on TGR4 [1] (1 and 0.1 μM) is listed as “increased luciferase activity”.

Regarding lysophosphatidic acid [LPA], the “intracellular calcium ion mobilization activity” value at TGR4 [2] is “increased specifically to CHO-TRG4”. In addition, on TGR4 [3], the “amount of intracellular cAMP production” value is listed as “increased specifically to CHO-TRG4”. On TGR4 [1] (1 μM), the luciferase activity entry is listed as “increased luciferase activity”.
